3 compounds from US10829517B2, “Method for treating or/and preventing calcium deficiency-related diseases” (National Chung Hsing University, priority 2017, dated 2020) can be followed below.

Ends that are not written are not given here.

The target in one data set is T1, calcium ion channel V6 (Homo sapiens, UniProt Q9H1D0).
T1 construct: endogenous in cells; host or cells: Caco-2
T1 sequence (Q9H1D0 1-765): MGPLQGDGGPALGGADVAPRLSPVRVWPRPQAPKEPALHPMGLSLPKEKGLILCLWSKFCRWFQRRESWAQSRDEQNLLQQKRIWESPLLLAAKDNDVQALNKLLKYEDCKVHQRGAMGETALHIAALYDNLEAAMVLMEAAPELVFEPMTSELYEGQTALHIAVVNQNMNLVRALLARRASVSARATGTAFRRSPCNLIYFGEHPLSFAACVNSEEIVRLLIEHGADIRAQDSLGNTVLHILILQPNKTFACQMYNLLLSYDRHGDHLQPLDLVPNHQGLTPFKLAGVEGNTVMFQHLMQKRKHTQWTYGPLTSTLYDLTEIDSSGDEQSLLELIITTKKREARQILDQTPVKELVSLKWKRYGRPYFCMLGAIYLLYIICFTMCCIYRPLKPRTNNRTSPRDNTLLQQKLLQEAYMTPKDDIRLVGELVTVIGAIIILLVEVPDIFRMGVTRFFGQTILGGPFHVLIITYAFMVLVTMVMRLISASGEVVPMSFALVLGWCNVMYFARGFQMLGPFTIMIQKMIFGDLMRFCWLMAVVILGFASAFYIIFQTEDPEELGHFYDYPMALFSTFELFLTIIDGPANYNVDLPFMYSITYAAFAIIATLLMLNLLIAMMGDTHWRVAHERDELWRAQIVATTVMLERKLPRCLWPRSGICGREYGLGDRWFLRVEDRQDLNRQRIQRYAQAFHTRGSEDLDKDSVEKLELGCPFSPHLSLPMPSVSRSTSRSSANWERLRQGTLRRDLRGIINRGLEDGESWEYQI
The data set is described as follows: Caco-2 calcium uptake with calcium ion channel V6 inhibitor ruthenium red. The class given is cell-based. Particulars: 6 mM calcium ions, 400 μM peptide of SEQ ID No. 1. On the procedure:
The steps were the same as those described in Example 5, except that the calcium ion channel V6 inhibitor: ruthenium red (RUR) was administered at the 154th second.

A further data set deals with Caco-2 cells. The data set is described as follows: Calcium uptake in Fluo-3-AM loaded Caco-2 cells (fluorescence intensity). The class given is cell-based, human. On the procedure: The Caco-2 cell monolayer was cultured in a 10 cm2 culture dish containing DEME medium, and the cells were separated by TrypLE (Invitrogen, Carlsbad, Calif.) and washed several times with a phosphate-free KRH (Krebs Ringer Heps) solution. 5 μL of 1 mM Fluo-3-AM dye and 20% (w/v) thermally reversible hydrogel (Pluronic F-127, RF127) solution were added at 37° C. for about 30 minutes to obtain a Caco-2 cell suspension.
The Caco-2 cell suspension containing Fluo-3-AM dye was thoroughly rinsed in phosphate-free KRH solution and aliquoted, each aliquot containing 5×10^7 cells. After each aliquot was pelletized, the cells were resuspended in 240 μL of the phosphate-free KRH solution, and then transferred to a 96-well plate for use.

[1] abbreviates: 400 μM peptide, 6 mM calcium ions, compared with 400 μM CPP group and no-peptide group.

Consider `N.N.N.N.N.N.N.N.N.N.N.N.N.N.[Cl-].[Cl-].[Cl-].[Cl-].[Cl-].[Cl-].[O-2].[O-2].[Ru+3].[Ru+3].[Ru+4]` [ruthenium red], for which the “percentage decrease of peak calcium ion (peak [Ca2+]) compared to the first group” value at calcium ion channel V6 (ruthenium red 10 μM (second group) vs 0 μM) came out at 41.9%; on calcium ion channel V6 (ruthenium red 20 μM (third group) vs 0 μM) it was 57.3%; at calcium ion channel V6 (ruthenium red 50 μM (fourth group) vs 0 μM) it was 72.0%; on calcium ion channel V6 (ruthenium red 100 μM (fifth group) vs 0 μM), 86.7%.

For “SEQ ID No. 2: peptide of SEQ ID No. 1 with the C-terminal 5 amino acids removed (TEVPAINTIASA)”, the calcium-absorption promotion ability result in the data set with Caco-2 cells (Example 17, FIG. 36, Caco-2 cells) is listed as “have the ability to promote calcium absorption”.

For the compound TEVPAINTIASAEPTVH [SEQ ID No. 1], the “calcium ion concentration (peak [Ca2+]) in Caco-2 cells” value in the data set with Caco-2 cells (setting [1]) is given as “significantly increased”. Besides, the “fluorescence intensity in Caco-2 cells” value in the data set with Caco-2 cells (setting [1]) is given as “significantly higher”; in the data set on Caco-2 cells (at the 442th second, 0 mM calcium ions (first group), 400 μM peptide) it was 7,059,148; in the data set with Caco-2 cells (at the 442th second, 0.3 mM calcium ions (second group), 400 μM peptide) it was 9,780,517; with Caco-2 cells (at the 442th second, 0.5 mM calcium ions (third group), 400 μM peptide), 9,720,348; in the data set on Caco-2 cells (at the 442th second, 1.5 mM calcium ions (fourth group), 400 μM peptide), 10,604,175; in the data set with Caco-2 cells (at the 442th second, 3 mM calcium ions (fifth group), 400 μM peptide), 10,986,171. The “fluorescence intensity in Caco-2 cells” value in the data set with Caco-2 cells (at the 442th second, 6 mM calcium ions (sixth group), 400 μM peptide) was 10,912,015.
